Test results taken from the NIST ThermoML archive (doi:10.1016/j.jct.2010.12.028).
Numbers after ± are expanded uncertainties.

How the values were obtained:
[1] = xn = mol fraction of the nth substance listed; conditions: 101 kPa, Liquid; for speed of sound: Sing-around technique in a fixed-path interferometer; for mass density: Vibrating tube method
[2] = excess molar enthalpy (molar enthalpy of mixing); xn = mol fraction of the nth substance listed; conditions: 308.15 K, 101 kPa, Liquid

## Cc1ccncc1 [4-methylpyridine] + Cc1ccccc1N
[1]; 298.15 K, x2 = 0.0525
  speed of sound: 1440.5 ± 2.3 m/s
  mass density: 953.707 ± 0.24 kg/m3
[1]; 298.15 K, x2 = 0.1236
  speed of sound: 1452.6 ± 2.3 m/s
  mass density: 958.201 ± 0.24 kg/m3
[1]; 298.15 K, x2 = 0.1357
  speed of sound: 1454.8 ± 2.3 m/s
  mass density: 958.939 ± 0.24 kg/m3
[1]; 298.15 K, x2 = 0.1839
  speed of sound: 1463.1 ± 2.3 m/s
  mass density: 961.774 ± 0.24 kg/m3
[1]; 298.15 K, x2 = 0.2328
  speed of sound: 1471.4 ± 2.3 m/s
  mass density: 964.507 ± 0.24 kg/m3
[1]; 298.15 K, x2 = 0.2655
  speed of sound: 1477.1 ± 2.3 m/s
  mass density: 966.252 ± 0.24 kg/m3
[1]; 298.15 K, x2 = 0.3023
  speed of sound: 1483.4 ± 2.3 m/s
  mass density: 968.154 ± 0.24 kg/m3
[1]; 298.15 K, x2 = 0.3539
  speed of sound: 1492.2 ± 2.4 m/s
  mass density: 970.688 ± 0.24 kg/m3
[1]; 298.15 K, x2 = 0.4133
  speed of sound: 1502.4 ± 2.4 m/s
  mass density: 973.431 ± 0.24 kg/m3
[1]; 298.15 K, x2 = 0.4863
  speed of sound: 1514.7 ± 2.4 m/s
  mass density: 976.578 ± 0.24 kg/m3
[1]; 298.15 K, x2 = 0.5256
  speed of sound: 1521.3 ± 2.4 m/s
  mass density: 978.183 ± 0.24 kg/m3
[1]; 298.15 K, x2 = 0.5671
  speed of sound: 1528.2 ± 2.4 m/s
  mass density: 979.804 ± 0.24 kg/m3
[1]; 298.15 K, x2 = 0.6272
  speed of sound: 1538.3 ± 2.4 m/s
  mass density: 982.039 ± 0.24 kg/m3
[1]; 298.15 K, x2 = 0.6963
  speed of sound: 1549.8 ± 2.4 m/s
  mass density: 984.487 ± 0.24 kg/m3
[1]; 298.15 K, x2 = 0.7674
  speed of sound: 1561.7 ± 2.4 m/s
  mass density: 986.874 ± 0.24 kg/m3
[1]; 298.15 K, x2 = 0.8234
  speed of sound: 1571.2 ± 2.4 m/s
  mass density: 988.699 ± 0.24 kg/m3
[1]; 298.15 K, x2 = 0.8657
  speed of sound: 1578.4 ± 2.4 m/s
  mass density: 990.061 ± 0.24 kg/m3
[1]; 298.15 K, x2 = 0.9537
  speed of sound: 1594 ± 2.4 m/s
  mass density: 992.867 ± 0.24 kg/m3
[1]; 303.15 K, x2 = 0.0525
  speed of sound: 1419.5 ± 2.3 m/s
  mass density: 949.033 ± 0.24 kg/m3
[1]; 303.15 K, x2 = 0.1236
  speed of sound: 1431.8 ± 2.3 m/s
  mass density: 953.635 ± 0.24 kg/m3
[1]; 303.15 K, x2 = 0.1357
  speed of sound: 1433.9 ± 2.3 m/s
  mass density: 954.384 ± 0.24 kg/m3
[1]; 303.15 K, x2 = 0.1839
  speed of sound: 1442.5 ± 2.3 m/s
  mass density: 957.264 ± 0.24 kg/m3
[1]; 303.15 K, x2 = 0.2328
  speed of sound: 1451.2 ± 2.3 m/s
  mass density: 960.045 ± 0.24 kg/m3
[1]; 303.15 K, x2 = 0.2655
  speed of sound: 1457 ± 2.3 m/s
  mass density: 961.821 ± 0.24 kg/m3
[1]; 303.15 K, x2 = 0.3023
  speed of sound: 1463.5 ± 2.3 m/s
  mass density: 963.746 ± 0.24 kg/m3
[1]; 303.15 K, x2 = 0.3539
  speed of sound: 1472.7 ± 2.3 m/s
  mass density: 966.314 ± 0.24 kg/m3
[1]; 303.15 K, x2 = 0.4133
  speed of sound: 1483 ± 2.3 m/s
  mass density: 969.1 ± 0.2 kg/m3
[1]; 303.15 K, x2 = 0.4863
  speed of sound: 1495.5 ± 2.4 m/s
  mass density: 972.285 ± 0.24 kg/m3
[1]; 303.15 K, x2 = 0.5256
  speed of sound: 1501.9 ± 2.4 m/s
  mass density: 973.912 ± 0.24 kg/m3
[1]; 303.15 K, x2 = 0.5671
  speed of sound: 1508.7 ± 2.4 m/s
  mass density: 975.56 ± 0.24 kg/m3
[1]; 303.15 K, x2 = 0.6272
  speed of sound: 1518.4 ± 2.4 m/s
  mass density: 977.832 ± 0.24 kg/m3
[1]; 303.15 K, x2 = 0.6963
  speed of sound: 1529.2 ± 2.4 m/s
  mass density: 980.309 ± 0.24 kg/m3
[1]; 303.15 K, x2 = 0.7674
  speed of sound: 1540.2 ± 2.4 m/s
  mass density: 982.738 ± 0.24 kg/m3
[1]; 303.15 K, x2 = 0.8234
  speed of sound: 1548.8 ± 2.4 m/s
  mass density: 984.584 ± 0.24 kg/m3
[1]; 303.15 K, x2 = 0.8657
  speed of sound: 1555.4 ± 2.4 m/s
  mass density: 985.955 ± 0.24 kg/m3
[1]; 303.15 K, x2 = 0.9537
  speed of sound: 1569.8 ± 2.4 m/s
  mass density: 988.752 ± 0.24 kg/m3
[1]; 308.15 K, x2 = 0.0525
  speed of sound: 1399.3 ± 2.3 m/s
  mass density: 944.539 ± 0.24 kg/m3
[1]; 308.15 K, x2 = 0.1236
  speed of sound: 1412.2 ± 2.3 m/s
  mass density: 949.213 ± 0.24 kg/m3
[1]; 308.15 K, x2 = 0.1357
  speed of sound: 1414.4 ± 2.3 m/s
  mass density: 949.974 ± 0.24 kg/m3
[1]; 308.15 K, x2 = 0.1839
  speed of sound: 1423.2 ± 2.3 m/s
  mass density: 952.886 ± 0.24 kg/m3
[1]; 308.15 K, x2 = 0.2328
  speed of sound: 1432.1 ± 2.3 m/s
  mass density: 955.673 ± 0.24 kg/m3
[1]; 308.15 K, x2 = 0.2655
  speed of sound: 1438.1 ± 2.3 m/s
  mass density: 957.455 ± 0.24 kg/m3
[1]; 308.15 K, x2 = 0.3023
  speed of sound: 1444.7 ± 2.3 m/s
  mass density: 959.382 ± 0.24 kg/m3
[1]; 308.15 K, x2 = 0.3539
  speed of sound: 1453.9 ± 2.3 m/s
  mass density: 961.964 ± 0.24 kg/m3
[1]; 308.15 K, x2 = 0.4133
  speed of sound: 1464.4 ± 2.3 m/s
  mass density: 964.753 ± 0.24 kg/m3
[1]; 308.15 K, x2 = 0.4863
  speed of sound: 1476.8 ± 2.3 m/s
  mass density: 967.972 ± 0.24 kg/m3
[1]; 308.15 K, x2 = 0.5256
  speed of sound: 1483.2 ± 2.3 m/s
  mass density: 969.611 ± 0.24 kg/m3
[1]; 308.15 K, x2 = 0.5671
  speed of sound: 1490 ± 2.3 m/s
  mass density: 971.274 ± 0.24 kg/m3
[1]; 308.15 K, x2 = 0.6272
  speed of sound: 1499.7 ± 2.3 m/s
  mass density: 973.587 ± 0.24 kg/m3
[1]; 308.15 K, x2 = 0.6963
  speed of sound: 1510.4 ± 2.4 m/s
  mass density: 976.116 ± 0.24 kg/m3
[1]; 308.15 K, x2 = 0.7674
  speed of sound: 1521.3 ± 2.4 m/s
  mass density: 978.601 ± 0.24 kg/m3
[1]; 308.15 K, x2 = 0.8234
  speed of sound: 1530 ± 2.4 m/s
  mass density: 980.475 ± 0.24 kg/m3
[1]; 308.15 K, x2 = 0.8657
  speed of sound: 1536.6 ± 2.4 m/s
  mass density: 981.851 ± 0.24 kg/m3
[1]; 308.15 K, x2 = 0.9537
  speed of sound: 1550.6 ± 2.4 m/s
  mass density: 984.639 ± 0.24 kg/m3
[2]; x2 = 0.0426
  excess molar enthalpy: -0.0583 ± 0.00263 kcal/mol
[2]; x2 = 0.0815
  excess molar enthalpy: -0.106 ± 0.00454 kcal/mol
[2]; x2 = 0.1339
  excess molar enthalpy: -0.166 ± 0.00693 kcal/mol
[2]; x2 = 0.1824
  excess molar enthalpy: -0.211 ± 0.0086 kcal/mol
[2]; x2 = 0.2243
  excess molar enthalpy: -0.246 ± 0.01 kcal/mol
[2]; x2 = 0.2715
  excess molar enthalpy: -0.282 ± 0.0115 kcal/mol
[2]; x2 = 0.3196
  excess molar enthalpy: -0.305 ± 0.0124 kcal/mol
[2]; x2 = 0.3825
  excess molar enthalpy: -0.332 ± 0.0136 kcal/mol
[2]; x2 = 0.4238
  excess molar enthalpy: -0.341 ± 0.0139 kcal/mol
[2]; x2 = 0.4783
  excess molar enthalpy: -0.342 ± 0.0139 kcal/mol
[2]; x2 = 0.5362
  excess molar enthalpy: -0.338 ± 0.0139 kcal/mol
[2]; x2 = 0.5915
  excess molar enthalpy: -0.322 ± 0.0131 kcal/mol
[2]; x2 = 0.6426
  excess molar enthalpy: -0.303 ± 0.0124 kcal/mol
[2]; x2 = 0.7121
  excess molar enthalpy: -0.261 ± 0.0108 kcal/mol
[2]; x2 = 0.7827
  excess molar enthalpy: -0.212 ± 0.0086 kcal/mol
[2]; x2 = 0.8211
  excess molar enthalpy: -0.178 ± 0.00741 kcal/mol
[2]; x2 = 0.8916
  excess molar enthalpy: -0.114 ± 0.00478 kcal/mol
[2]; x2 = 0.9672
  excess molar enthalpy: -0.0361 ± 0.00182 kcal/mol
